Source: US11529323B2 (priority 2017, dated 2022)

Key:
[1] = tested on: luteinizing hormone; assay: Serum luteinizing hormone radioimmunoassay, Study 1; type: in vivo, mouse; details: Study 1, Day 18; C-26 tumor bearing mice; GTx-024 15 mg/kg
Description: FIG. 9A is a bar graph showing serum luteinizing hormone levels measured on Day 18. FIG. 9B is a graph showing per animal food consumption measured every two days. FIG. 9C is a plot showing spleen weights normalized to tumor mass-corrected terminal body weight. […], versus tumor-bearing vehicle-treated controls, Dunnett's multiple comparison test.
Luteinizing hormone (LH) was measured in serum by a two-site sandwich radioimmunoassay performed by the Ligand Assay and Analysis Core at the Center for Research in Reproduction, University of Virginia School of Medicine (Charlottesville, Va.). Serum was isolated by centrifugation (2000×g, 15 minutes) from whole blood samples collected from mice immediately post-mortem, and then stored at −80° C. until shipment on dry ice.

[2] = tested on: C-26 colon adenocarcinoma cachexia model; assay: AR-42 dose-response study in the C-26 cachexia model; type: in vivo, mouse
Description: (§1) These studies were performed as previously described (Tseng Y C, et al. J Natl Cancer Inst. 2015 107(12):djv274) with modifications. Tumors were established in the right flank by subcutaneous injection of C-26 cells (0.5×10^6 cells in 0.1 mL). […] TFM-4AS-1 (a potent experimental SARM), dihydrotestosterone (DHT) and vehicles were administered by subcutaneous injection.
Male CD2F1 mice were stratified by body weight and then randomly assigned into 5 groups of 6 animals each. C-26 tumors were established in four of the groups, while those in the fifth group, serving as tumor-free controls, were injected with sterile saline. Six days later, animals with palpable tumors were treated with AR-42 once daily at 10 (n=5) and 20 mg/kg (n=6), and every other day at 50 mg/kg (n=5), or vehicle control (n=4) for 13 days. Upon sacrifice on study day 18, when the majority of tumor-bearing control mice met euthanasia criteria, the left gastrocnemius muscle was excised and flash frozen in liquid nitrogen and stored at −80° C. for subsequent analyses. Carcass weights were corrected for tumor weight by assuming a tumor density equivalent to water (1 g/cm^3).

[3] = tested on: C-26 colon adenocarcinoma cachexia model; assay: Confirmatory AR-42/GTx-024 combination study (Study 2), C-26 model; type: in vivo, mouse
Description: as §1
This confirmatory study was performed exactly as Study 1 with expanded animal numbers. Tumor-free control groups were maintained at 6 animals each, whereas 10 animals were included in each of the tumor-bearing groups. […] Grip strength was measured on study days 0 (baseline) and 16. Due to rapid model progression, this study was terminated after only 12 days of treatment.
(§2) Forelimb grip strength was measured using Bio-GS3 Grip Strength Test Meter (Forceleader DBA Bioseb, Pinellas Park, Fla.). Each mouse was held by the base of its tail and lowered over the apparatus until its forepaws grasped the metal pull bar. The mouse was then gently pulled horizontally in a straight line away from the grip strength meter until the mouse released the bar. The force applied to the bar at the moment of release was recorded as the peak force. Five measurements were taken from each mouse, the average of which was designated as the mouse's grip strength.

[4] = Sborov et al. 2017; cited from earlier work
[5] = tested on: C-26 colon adenocarcinoma cachexia model; assay: Combined androgen and AR-42 study (Study 3), C-26 model; type: in vivo, mouse
Description: as §1
Six days after cell injection, animals with palpable tumors were treated once daily for 13 days with vehicles for AR-42 and TFM-4AS-1/DHT (n=9), AR-42 (10 mg/kg; TFM-4AS-1/DHT vehicle; n=10), TFM-4AS-1 (10 mg/kg; AR-42 vehicle; n=9), DHT (3 mg/kg; AR-42 vehicle; n=10), the combination of AR-42 and TFM-4AS-1 (10 mg/kg each; n=9), or the combination of AR-42 (10 mg/kg) and DHT (3 mg/kg)(n=10). Grip strength was measured and tissues collected as in the previous studies.
as §2

[6] = tested on: IL-6; assay: Serum IL-6 ELISA, Study 2; type: in vivo, mouse; details: Study 2 terminal serum; AR-42 10 mg/kg
Description: (§3) FIG. 4A is a table showing multiplex analysis of diverse serum cytokines in terminal samples from Study 2. Presented cytokines are limited to those showing significant differences from tumor-bearing vehicle-treated controls. G-CSF: granulocyte colony-stimulating factor, GM-CSF: granulocyte macrophage colony-stimulating factor, IL-6: interleukin-6, IL-17: interleukin-17, IP-10: interferon gamma-induced protein 10, KC: chemokine (C-X-C motif) ligand 1, LIF: leukemia inhibitory factor, M-CSF: macrophage colony-stimulating factor. FIG. 4B is a bar graph showin ELISA analysis of serum IL-6 levels in terminal samples from Study 2. ND, not detected. FIG. 4C is a plot showing individual animal serum IL-6 values as determined in A plotted against tumor-corrected terminal bodyweights from Study 2 (Pearson's Correlation). […] FIG. 4E is a plot showing spleen weights normalized to tumor-corrected terminal body weights of mice from Study 2. FIG. 4F is a bar graph showing ELISA analysis of STAT3 within C-26 tumors from Study 2. […]
Serum cytokine panel analyses were performed by a commercial vendor (Eve Technologies, Calgary, Canada) as previously described. Serum interleukin-6 (IL-6) was measured using a commercial ELISA kit (R&D Systems, Minneapolis, Minn., USA) according to the manufacturer's instructions.

[7] = tested on: phospho-STAT3 (pSTAT3); assay: Phospho-STAT3/STAT3 ELISA in C-26 tumors, Study 2; type: in vivo, mouse; details: AR-42 10 mg/kg
Description: as §3
Phospho-STAT3/STAT3 Analysis: Expression of phospho-STAT3 and total STAT3 in C-26 tumor tissues was measured using commercial sandwich ELISA kits according to the manufacturer's instructions (PathScan® Phospho-Stat3, #7300, and Total Stat3, #7305, Cell Signaling Technology, Danvers, Mass.).

[8] = oral gavage every other day; cited from earlier work
[9] = tested on: C-26 tumor-bearing mice; details: AR-42 50 mg/kg, Tseng et al. 2015, cited from earlier work

SMILES	serum luteinizing hormone [1]	lowest efficacious dose ([2]; daily oral, C-26 model) [mg/kg]	tumor-corrected body weight ([2]; thirteen daily oral doses of 20 or 10 mg/kg, similar to six 50 mg/kg doses q2d, C-26 tumor-bearing mice, Day 18)	spleen mass ([3]; Study 1 and 2, C-26 tumor-bearing, normalized to tumor-corrected terminal body weight)	forelimb grip strength ([3]; Study 2, day 16, C-26 tumor-bearing)	adipose or heart mass ([3]; Study 2, AR-42 10 mg/kg)	effect on gastrocnemius and quadriceps mass ([3]; Study 2, C-26 tumor-bearing, versus vehicle-treated tumor-bearing controls)	well tolerated plasma exposure in humans [4] [µM·h]	terminal body weight ([5]; Study 3, Day 17, of baseline, C-26 tumor-bearing, AR-42 10 mg/kg oral, TFM-4AS-1 10 mg/kg s.c., DHT 3 mg/kg s.c.)	effect on mass of gastrocnemius or quadriceps ([5]; Study 3, monotherapy (TFM-4AS-1 10 mg/kg; AR-42 10 mg/kg))	circulating IL-6 levels (ELISA) [6]	pSTAT3 signaling within the C-26 tumors [7]	maximally tolerated dose in mice [8] [mg/kg]	effect on adipose [9]	serum IL-6 levels and gastrocnemius IL-6 receptor mRNA abundance ([9]; tumor-bearing mice)
C[C@](O)(COc1ccc(C#N)cc1)C(=O)Nc1ccc(C#N)c(C(F)(F)F)c1 [GTx-024, (2S)-3-(4-cyanophenoxy)-N-(4-cyano-3-(trifluoromethyl)phenyl)-2-hydroxy-2-methylpropanamide]	suppression of serum luteinizing hormone	–	–	–	–	–	–	–	–	–	–	–	–	–	–
CC(C)[C@H](C(=O)Nc1ccc(C(=O)NO)cc1)c1ccccc1 [AR-42, (S)—N-hydroxy-4-(3-methyl-2-phenylbutanamido)benzamide]	–	10	reversed C-26 tumor-mediated reductions in tumor-corrected body weight	either unchanged or slightly increased	improved grip strength over vehicle-treated tumor-bearing controls	had no impact on adipose or heart mass	significantly spared gastrocnemius and quadriceps mass	8.5	93.5±4.8	did not significantly impact skeletal muscle masses	did not affect circulating IL-6 levels	did not significantly suppress pSTAT3 signaling within the C-26 tumors	50	adipose-sparing effect	reduced serum IL-6 levels, as well as gastrocnemius IL-6 receptor mRNA abundance
